Patent publication US20130023569A1, “Use of Deferiprone for Treatment and Prevention of Iron-Related Eye Disorders” (THE TRUSTEES OF THE UNIVERSITY OF PENNSYLVANIA, priority 2009, published 2013)

How the values were obtained:
[1] = test system: Cp/Heph double knockout (DKO) mice; test: Retinal histology of Cp/Heph DKO mice given oral deferiprone in drinking water; format: in vivo, mouse
Excerpt: (§1) In the following examples, double knockout (DKO) mice were used where the mice were genetically modified to generate a deficiency in the ferroxidase ceruloplasmin (Cp) and its homologue hephaestin (Heph). These mice develop age-related retinal degeneration due to retinal iron accumulation, as do humans. Since the knockout affects all tissues and organs, they also develop other symptoms of localized iron excess, with a simultaneous inability to adequately utilize the available iron for normal homeostasis, such as making new hemoglobin (they have low hematocrits). These animals also develop neurological deficits, including ataxia and die at an early age, typically 6-9 months, although some may survive to 12 or 13 months with significant impaired ability to function The retinas of these Cp/Heph deficient mice accumulate iron in the RPE and photoreceptor outer segments in an age-dependent manner, then develop RPE and photoreceptor degeneration with subretinal neovascularization and sub-RPE wide-spaced collagen deposits. Cp/Heph DKO mice develop retinal, brain, liver, and heart iron overload with iron deficiency anemia. In untreated DKOs, iron gets trapped in the tissues and is not returned to the blood, leading to iron deficiency anemia. There is an age-dependent tissue iron buildup with retinal and brain degeneration.
(§2) Eye Drop Administration: Beginning at age 5 months (when elevated retinal iron levels are detected), mice were given deferiprone eye drops (10 mg/ml) three times a day in one eye and control water eye drops in the other eye for two months, with the last drop given 2 h prior to sacrifice. Eyes were fixed in 2% paraformaldehyde/2% glutaraldehyde then sectioned for analysis of morphology (following staining with Toluidine Blue) and iron content (following staining with Perls' Prussian Blue). The number and length of retinal pigment epithelial (RPE) cell hypertrophy and photoreceptor atrophy areas were quantified in deferiprone-treated vs. water-treated control eyes. The intensity of Perls' stain in the ciliary body, retina and RPE were assessed in digital photomicrographs quantifying pixel density.
Oral Administration: DKO mice were given deferiprone in their drinking water at a concentration of (1 mg/ml). The mice typically drink 5 ml of water a day and weigh 30 g. Mice began drinking deferiprone/water at age 7 months since that is the time such mice normally develop the retinal changes consistent with AMD. The animals were sacrificed at various time points that are known to represent significant retinal and neurological damage in untreated animals and the eyes of sacrificed animals were analyzed as noted above.

[2] = cited from earlier work
retinal iron = test: Perls' stain of retinal iron in DKO mice, oral deferiprone; format: in vivo; conditions: 13 month old DKO mouse, PO 1 mg/ml in drinking water for 9 months, vs untreated DKO
Excerpt: FIG. 4 illustrates three Perls' stains of 7 and 13 month old untreated DKO mice retinas (FIGS. 4A and 4B, respectively) and of a treated 13 month old DKO mouse (FIG. 4C). The following abbreviations appear in the Figures: RPE, retinal pigment epithelium; ONL, outer nuclear layer; OPL, outer plexiform layer; IPL, inner plexiform layer; GCL, ganglion cell layer. Scale bar: 50 μm.
as §2, with “Eyes were fixed in 2% paraformaldehyde/2% glutaraldehyde then sectioned for analysis of morphology (following staining with Toluidine Blue) and iron content (following staining with Perls' Prussian Blue).” left out
(§3) Oral Administration: DKO mice were given deferiprone in their drinking water at a concentration of (1 mg/ml). […] The animals were sacrificed at various time points that are known to represent significant retinal and neurological damage in untreated animals and the eyes of sacrificed animals were analyzed as noted above. […]

[3] = test system: eye of Hra:(NZW)SPF rabbits; test: Sensitivity testing of eye drops: ocular irritation/corrosion (Draize, sodium fluorescein); format: in vivo, rabbit
Method: The ocular irritation/corrosion potential of the product was assessed by instilling approximately 0.1 mL at a concentration of about 13 mg/mL into the everted lower lid of the right eye of 3 male Hra:(NZW)SPF rabbits; the left eye served as the untreated control. Approximately 24 hours after instillation, the treated eyes were examined for corneal injury and washed using room-temperature physiological saline.

[4] = Hematocrit in DKO mice, oral deferiprone; format: in vivo, mouse
Excerpt: as §1, with “Cp/Heph DKO mice develop retinal, brain, liver, and heart iron overload with iron deficiency anemia. In untreated DKOs, iron gets trapped in the tissues and is not returned to the blood, leading to iron deficiency anemia. There is an age-dependent tissue iron buildup with retinal and brain degeneration.” left out
as §3

[5] = test system: Cp/Heph double knockout (DKO) mice; test: Survival (Kaplan-Meier) and ataxia of DKO mice, oral deferiprone; format: in vivo, mouse
Excerpt: FIG. 7 is a Kaplan-Meier survival curve for deferiprone treated and untreated DKO mice.
In the following examples, double knockout (DKO) mice were used where the mice were genetically modified to generate a deficiency in the ferroxidase ceruloplasmin (Cp) and its homologue hephaestin (Heph). These mice develop age-related retinal degeneration due to retinal iron accumulation, as do humans. Since the knockout affects all tissues and organs, they also develop other symptoms of localized iron excess, with a simultaneous inability to adequately utilize the available iron for normal homeostasis, such as making new hemoglobin (they have low hematocrits). […]
Oral Administration: DKO mice were given deferiprone in their drinking water at a concentration of (1 mg/ml). […] The animals were sacrificed at various time points that are known to represent significant retinal and neurological damage in untreated animals and the eyes of sacrificed animals were analyzed as noted above.
(P<0.0001). The lifespan of the treated animals is an under-estimate, as these mice were sacrificed for iron quantification before they became sick. […]

[6] = test system: transferrin Receptor (TfR) mRNA; test: TfR mRNA by qPCR in retina and RPE/choroid of wild type mice, oral deferiprone; format: in vivo, mouse; conditions: 1 mg/ml in drinking water PO for 11 days, n=4, vs untreated
Method: FIG. 2 is two graphs showing relative quantification of transferrin Receptor (TfR) mRNA levels in the retinas and retinal pigment epithelia (RPE)/choroids of deferiprone treated and untreated wild type mice in retinas (FIG. 2A) and in RPE/choroids (FIG. 2B). The treated mice (n=4) were given deferiprone for 11 days PO (1 mg/ml in the drinking water). […] Relative quantification of TfR expression is also shown for the RPE/choroids (See FIG. 2B) of treated in comparison to untreated animals.

[7] = test system: transferrin receptor messenger ribonucleic acid (TfR mRNA); test: TfR mRNA by qPCR in RPE/choroid after deferiprone eye drops; format: in vivo, mouse; conditions: eye drops 10 mg/ml three times a day for two months, right eye treated vs left eye control
Method: FIG. 3 is a graph illustrating the amount of transferrin receptor messenger ribonucleic acid (TfR mRNA) in the RPE/choroid from a treated eye and an untreated eye. The error bars represent SD of 3 PCR reactions using the same batch of mRNA template.
as §2
The mouse had the right eye (OD) treated with deferiprone topically (in the form of the eye drops, 10 mg/ml) three times a day for two months, whereas the left eye (OS) was used as an internal control. The last administration was given 2 h prior to sacrifice. Relative quantification of TfR mRNA was detected by qPCR. […]

## Cc1c(O)c(=O)ccn1C [deferiprone]
[1]; 14 month Cp/Heph knockout, oral deferiprone for 5 months, FIG. 1
  retina appearance (toluidine blue plastic sections): appears normal except for a few mildly hypertrophic RPE cells
[1]; DKO mice 12-14 months old, deferiprone 1 mg/ml in drinking water for 5-7 months
  retinal degeneration and damage: almost no retinal degeneration and damage
[1]; DKO mice, deferiprone 1 mg/ml PO in drinking water for 6-9 months, FIG. 5
  retinal tissue histology: near normal tissue
[1]; most severely affected regions, DKO mice, deferiprone 1 mg/ml PO for 6-9 months, untreated more than 90%
  areas of RPE hypertrophy, share of the retina involved: < 10%
[2]; humans
  half life: about 2 hours
[2]; thalassemia patients, oral doses 75 to 100 mg/kg/day
  agranulocytosis, share of patients: about 1%
Retinal iron
  retinal iron (Perls' stain): decreased retinal iron
[3]; 0.1 mL of about 13 mg/mL into right eye of 3 male rabbits, 1, 24, 48 and 72 hours after instillation
  eye irritation, Draize score: 0
[3]; about 24 hours post dose, about 13 mg/mL, rabbits
  corneal injury, sodium fluorescein test: no injury to the cornea
[4]; deferiprone-treated DKO mice n=7, untreated mean 24.6%, P<0.05
  hematocrit, mean value: 36.7%
[4]; treated DKO mice 12 and 14 months old, 1 mg/ml in drinking water 5-7 months, untreated 19-26%
  hematocrit at time of sacrifice: 30-50%
[5]; DKO mice, 1 mg/ml in drinking water, 2 mice at 14 months and 2 at 12 months
  ataxia: some mild ataxia
[5]; treated DKO mice, LogRank test, untreated 7 months, P<0.0001
  median survival: 13 months
[6]
  TfR mRNA levels in retinas (relative quantification, standardized to 18S RNA): significant up regulation of TfR mRNA levels
[6]; P<0.05
  TfR expression in RPE/choroids (relative quantification): significant difference
[7]
  TfR mRNA in RPE/choroid (relative quantification): siqnificant TfR mRNA increase
